Patent publication US11591322B2, “Certain chemical compositions and methods of use thereof” (Algen Biotechnologies, Inc., priority 2020, dated 2023)

What was measured:
[1] = system: Hep3B cells; test: Cancer cell viability assay (CellTiter-Glo 2.0), Hep3B; format: cell-based, Human; details: 72 hours compound treatment
Protocol: (§1) Human liver cancer cell lines HepG2, Hep3B, Huh7, and SK-HEP-1 cells were rinsed and trypsinized with 0.25% trypsin (Corning #25-053-CI) in an incubator at 37° C. until detached. The cells were resuspended and seeded in 96-well plates to a density of 5,000 cells per well. Following cell adhesion, compounds were added to a final concentration of 2× dilution. 72 hours following compound treatment, CellTiter-Glo® 2.0 was added to the well in a 2:1 ratio of media/CellTiter-Glo® 2.0. The plates were shielded from light, shaken for 2 minutes, and incubated for 10 minutes. Luminescence was measured on a microplate reader and EC50 values were calculated using Prism 9 software.

[2] = Pharmacokinetic and tissue distribution study, liver versus blood in mice; format: in vivo; details: CD-1 mice, single oral dose 5 mg/kg suspension, 2 hours; compared with NVP-2 (FIG. 1)
Protocol: For mice experiments, the liver and blood pharmacokinetics of compounds were analyzed in CD-1 mice following a single oral administration dose of 5 mg/kg compound suspension.
Liver and blood samples for determination of compound concentration were obtained at 2 hours following administration of compounds (n=3 for each compound). The ratios of compound concentrations in liver versus blood in CD-1 mice following a single oral administration dose of 5 mg/kg compound suspension are summarized in FIG. 1.

[3] = biological target: CDK9/CyclinT (Homo sapiens (Human), UniProt P50750); test: CDK9 biochemical assay (Kinase-Glo Max luminescence); details: 30° C. for 45 minutes
Protocol: To each well of a 96-well plate was added 5× kinase assay buffer with 10 mM DTT (6 μL), 500 μM ATP (1 μL), 5×CDK substrate (10 μL), and water (8 μL). 5 μL of compound were added to the test and positive control groups, while 5 μL of solvent was added to the blank groups. 100 ng of CDK9/CyclinT in 20 μL water was added to the test and positive control groups, while 20 μL of 1× kinase assay buffer was added to the blank groups. The reaction mixtures were incubated at 30° C. for 45 minutes, and 50 μL of Kinase-Glo® Max was added to each well and the plates were shielded from light and incubated for 15 minutes at room temperature. Luminescence was measured on a microplate reader and IC50 values were calculated using Prism 9 software.

[4] = system: HepG2 cells; test: Cancer cell viability assay (CellTiter-Glo 2.0), HepG2; format: cell-based, Human; details: HepG2, 72 hours compound treatment
Protocol: as §1

[5] = system: SK-HEP-1 cells; test: Cancer cell viability assay (CellTiter-Glo 2.0), SK-HEP-1; format: cell-based, Human; details: SK-HEP-1, 72 hours compound treatment
Protocol: as §1

[6] = system: Huh7 cells; test: Cancer cell viability assay (CellTiter-Glo 2.0), Huh7; format: cell-based, Human; details: Huh7, 72 hours compound treatment
Protocol: as §1

[7] = Pharmacokinetic study, jugular vein versus portal vein blood in rats; format: in vivo, Sprague-Dawley (SD) rats; details: SD rats, single oral dose 5 mg/kg suspension; compared with NVP-2 (FIG. 2)
Protocol: For rat experiments, the pharmacokinetics of compounds in blood collected from jugular vein and portal vein were analyzed in Sprague-Dawley (SD) rats following a single oral administration dose of 5 mg/kg compound suspension. Blood samples for determination of compound concentration were obtained from jugular vein and portal vein at 0.25 h, 0.5 h, 1 h, 2 h, 4 h, 6 h, 8 h, and 24 h following administration of compounds (n=3 for each compound). Collected liver and blood samples were analyzed using an LC-MS/MS method to quantify compound concentrations. The ratios of compound concentrations in blood collected from jugular vein versus portal vein in Sprague-Dawley (SD) rats following a single oral administration dose of 5 mg/kg compound suspension are summarized in FIG. 2.

[8] = Tolerability and safety assessment study (body weight change); format: in vivo; details: BALB/c nude mice; compared with NVP-2 (FIG. 3)
Protocol: Based on the body weight, BALB/c nude mice were randomly assigned to respective groups using a computer-generated randomization procedure. Body weights of all animals were measured daily to record weight changes (relative to day 1) of BALB/c nude mice treated with vehicle and compounds. For routine monitoring, all study animals were monitored for behavior such as mobility, food and water consumption, body weight, eye/hair matting and any other abnormal effect. Any mortality and/or abnormal clinical signs were recorded. The animals were euthanized when they lost significant body mass (emaciated, obvious body weight loss >20%).

Chain of CDK9/CyclinT (P50750 whole entry): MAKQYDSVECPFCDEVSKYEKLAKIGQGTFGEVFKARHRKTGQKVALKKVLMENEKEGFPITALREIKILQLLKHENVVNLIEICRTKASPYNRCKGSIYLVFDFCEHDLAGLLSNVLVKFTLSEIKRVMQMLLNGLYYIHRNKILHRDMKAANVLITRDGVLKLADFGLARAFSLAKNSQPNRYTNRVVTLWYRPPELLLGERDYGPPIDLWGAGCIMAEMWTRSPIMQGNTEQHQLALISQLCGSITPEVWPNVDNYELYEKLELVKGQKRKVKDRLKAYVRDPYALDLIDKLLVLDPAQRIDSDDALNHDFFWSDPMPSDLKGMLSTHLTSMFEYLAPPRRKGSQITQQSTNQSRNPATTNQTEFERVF
Chain of CDK9/CyclinT (O60563 whole entry partner): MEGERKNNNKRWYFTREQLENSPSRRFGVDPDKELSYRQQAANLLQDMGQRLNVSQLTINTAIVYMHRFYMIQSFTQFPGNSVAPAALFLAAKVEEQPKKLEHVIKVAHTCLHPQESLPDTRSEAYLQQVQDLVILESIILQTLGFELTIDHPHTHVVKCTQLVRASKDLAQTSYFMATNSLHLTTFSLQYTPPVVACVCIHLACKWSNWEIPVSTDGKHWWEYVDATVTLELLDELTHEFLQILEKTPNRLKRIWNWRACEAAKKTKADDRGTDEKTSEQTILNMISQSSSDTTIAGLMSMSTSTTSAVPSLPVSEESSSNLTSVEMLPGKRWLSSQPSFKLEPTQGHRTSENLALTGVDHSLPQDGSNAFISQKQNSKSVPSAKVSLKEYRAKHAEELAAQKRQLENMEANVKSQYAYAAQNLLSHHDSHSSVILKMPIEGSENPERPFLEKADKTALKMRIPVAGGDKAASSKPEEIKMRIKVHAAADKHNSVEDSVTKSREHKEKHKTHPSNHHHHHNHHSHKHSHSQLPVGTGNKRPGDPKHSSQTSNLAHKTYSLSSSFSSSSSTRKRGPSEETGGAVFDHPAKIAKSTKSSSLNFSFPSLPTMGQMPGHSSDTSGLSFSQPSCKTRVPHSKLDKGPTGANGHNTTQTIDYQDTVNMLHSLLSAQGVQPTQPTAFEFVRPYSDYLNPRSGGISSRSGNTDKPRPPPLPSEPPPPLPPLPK

Structure (SMILES)	EC50 [1] [nM]	ratio of compound concentrations in liver versus blood [2]	IC50 [3] [nM]	EC50 [4] [nM]	EC50 [5] [nM]	EC50 [6] [nM]	ratio of compound concentrations in blood from jugular vein versus portal vein (liver efflux/influx ratio) [7]	toxicity (mean weight changes relative to day 1) [8]
C[C@H](COCCNS(=O)(=O)C(F)(F)F)NC1CCC(Nc2cc(-c3cccc(NCC4(C#N)CCOCC4)n3)c(Cl)cn2)CC1 (mixture of isomers) [Compound 40, N-(2-(2-(((1r,4r)-4-((5′-chloro-6-(((4-cyanotetrahydro-2H-pyran-4-yl)methyl)amino)-[2,4′-bipyridin]-2′-yl)amino)cyclohexyl)amino)propoxy)ethyl)-1,1,1-trifluoromethanesulfonamide]	100 to 500	higher liver/blood ratios than NVP-2	2.5 to 5	< 100	–	–	–	–
C[C@H](COCc1nn[nH]n1)N[C@H]1CC[C@H](Nc2cc(-c3cccc(NCC4(C#N)CCOCC4)n3)c(Cl)cn2)CC1 [Compound 2, 4-(((2′-(((1R,4R)-4-(((R)-1-((2H-tetrazol-5-yl)methoxy)propan-2-yl)amino)cyclohexyl)amino)-5′-chloro-[2,4′-bipyridin]-6-yl)amino)methyl)tetrahydro-2H-pyran-4-carbonitrile]	> 1000	–	> 10	> 1000	> 1000	500 to 1000	–	–
C[C@@H](COCc1nn[nH]n1)NC1CCC(Nc2cc(-c3cccc(NCC4(C#N)CCOCC4)n3)c(Cl)cn2)CC1 (stereo partly drawn) [Compound 3, 4-(((2′-(((1S,4R)-4-(((S)-1-((2H-tetrazol-5-yl)methoxy)propan-2-yl)amino)cyclohexyl)amino)-5′-chloro-[2,4′-bipyridin]-6-yl)amino)methyl)tetrahydro-2H-pyran-4-carbonitrile]	–	–	> 10	> 1000	> 1000	> 1000	–	–
C[C@H](COCC(=O)O)NC1CCC(Nc2cc(-c3cccc(NCC4(C#N)CCOCC4)n3)c(Cl)cn2)CC1 (stereo partly drawn) [Compound 8, 2-((R)-2-(((1R,4R)-4-((5′-chloro-6-(((4-cyanotetrahydro-2H-pyran-4-yl)methyl)amino)-[2,4′-bipyridin]-2′-yl)amino)cyclohexyl)amino)propoxy)acetic acid]	–	–	2.5 to 5	> 1000	> 1000	> 1000	–	–
CC(C)OC(=O)COC[C@@H](C)N[C@H]1CC[C@H](Nc2cc(-c3cccc(NCC4(C#N)CCOCC4)n3)c(Cl)cn2)CC1 [Compound 15, isopropyl 2-((R)-2-(((1r,4R)-4-((5′-Chloro-6-(((4-Cyanotetrahydro-2H-pyran-4-yl)methyl)amino)-[2,4′-bipyridin]-2′-yl)amino)cyclohexyl)amino)propoxy)acetate]	–	–	2.5 to 5	< 100	< 100	< 100	–	–
CC(C)OC(=O)COC[C@H](C)N[C@H]1CC[C@H](Nc2cc(-c3cccc(NCC4(C#N)CCOCC4)n3)c(Cl)cn2)CC1 [Compound 16, isopropyl 2-((S)-2-(((1r,4S)-4-((5′-chloro-6-(((4-cyanotetrahydro-2H-pyran-4-yl)methyl)amino)-[2,4′-bipyridin]-2′-yl)amino)cyclohexyl)amino)propoxy)acetate]	–	–	5 to 10	100 to 500	< 100	< 100	–	–
C[C@H](COCC(=O)OC(C)(C)C)N[C@H]1CC[C@H](Nc2cc(-c3cccc(NCC4(C#N)CCOCC4)n3)c(Cl)cn2)CC1 [Compound 18, tert-butyl 2-((R)-2-(((1r,4R)-4-((5′-chloro-6-(((4-cyanotetrahydro-2H-pyran-4-yl)methyl)amino)-[2,4′-bipyridin]-2′-yl)amino)cyclohexyl)amino)propoxy)acetate]	< 100	higher liver/blood ratios than NVP-2	> 10	< 100	< 100	< 100	lower liver efflux/influx ratio than NVP-2	lower toxicity than NVP-2

Further lines, with some results ahead:

EC50 [1] [nM]	ratio of compound concentrations in liver versus blood [2]	IC50 [3] [nM]	EC50 [4] [nM]	EC50 [5] [nM]	EC50 [6] [nM]	Structure (SMILES)	ratio of compound concentrations in blood from jugular vein versus portal vein (liver efflux/influx ratio) [7]	toxicity (mean weight changes relative to day 1) [8]
–	–	< 2.5	500 to 1000	< 100	< 100	CCOC(=O)COC[C@@H](C)NC1CCC(Nc2cc(-c3cccc(NCC4(C#N)CCOCC4)n3)c(Cl)cn2)CC1 (some centres unmarked) [Compound 5]	–	–
100 to 500	–	< 2.5	500 to 1000	< 100	< 100	CCOC(=O)COC[C@H](C)NC1CCC(Nc2cc(-c3cccc(NCC4(C#N)CCOCC4)n3)c(Cl)cn2)CC1 (some centres unmarked) [Compound 6]	lower liver efflux/influx ratio than NVP-2	–
> 1000	–	5 to 10	> 1000	> 1000	> 1000	C[C@@H](COCC(=O)O)NC1CCC(Nc2cc(-c3cccc(NCC4(C#N)CCOCC4)n3)c(Cl)cn2)CC1 (stereo partly drawn) [Compound 9, 2-((S)-2-(((1R,4S)-4-((5′-chloro-6-(((4-cyanotetrahydro-2H-pyran-4-yl)methyl)amino)-[2,4′-bipyridin]-2′-yl)amino)cyclohexyl)amino)propoxy)acetic acid]	–	–
–	–	2.5 to 5	< 100	< 100	< 100	C[C@@H](COCC(=O)OC(C)(C)C)N[C@H]1CC[C@H](Nc2cc(-c3cccc(NCC4(C#N)CCOCC4)n3)c(Cl)cn2)CC1 [Compound 19, tert-butyl 2-((S)-2-(((1r,4S)-4-((5′-chloro-6-(((4-cyanotetrahydro-2H-pyran-4-yl)methyl)amino)-[2,4′-bipyridin]-2′-yl)amino)cyclohexyl)amino)propoxy)acetate]	–	–
100 to 500	higher liver/blood ratios than NVP-2	5 to 10	< 100	–	–	C[C@H](COCc1nnn(C)n1)N[C@H]1CC[C@H](Nc2cc(-c3cccc(NCC4(C#N)CCOCC4)n3)c(Cl)cn2)CC1 [Compound 33, 4-(((5′-chloro-2′-(((1R,4r)-4-(((R)-1-((2-methyl-2H-tetrazol-5-yl)methoxy)propan-2-yl)amino)cyclohexyl)amino)-[2,4′-bipyridin]-6-yl)amino)methyl)tetrahydro-2H-pyran-4-carbonitrile]	–	–
